SMILES strings stand for the structures. Like-named read-outs stand apart in the source and are kept apart here.

Details of data set [1]: method as in Wang et al., 2018. As to conditions: after orally administering 30 g/kg FA decoction; ref Wang et al., 2018; cited from earlier work.
A short description of data set [2]: Pharmacokinetics in SD rats after oral administration of FA extract, NA, NHE or NA-NHE (UPLC-MS/MS of plasma, DAS 3.1). It is filed as in vivo, Sprague-Dawley (SD) rats. The settings on record: for Shape of the plasma concentration-time profile: rats, oral administration, naringin and neohesperidin determined as naringenin and hesperetin. As for the experimental part: The 20 μl of β-glucuronidase and 15 μl of sulfatase were added into 50 μl of plasma sample. After vortexed for 30 s, the mixture was incubated at 37°C for 2 h in a water bath, then placed in ice water for 5 min to terminate the reaction ([Xu et al., 2019]). IS solution (20 µl, 5 μg/ml) and acetonitrile (1.0 ml) were added into the mixture and vortexed for 2 min. […] Rats were randomly divided into the following four groups (6 rats in each group): naringin (NA), neohesperidin (NHE), naringin-neohesperidin (NA-NHE), and FA extract group. The oral administration doses were selected according to the literatures ([Tong et al., 2012]; [Yang et al., 2012]; [Committee of National Pharmacopoeia of RP China, 2015]; [Wang et al., 2018]; [Zhang et al., 2018]; [Chen et al., 2019]), the contents of the five components in FA, and the preliminary experiments. The specific doses were as follows: […] The rats had free access to water during the experiment. The blood samples were then immediately centrifuged at 4,000 rpm for 10 min. The plasma was frozen and stored at −80°C until analysis. The plasma concentration of the studied compounds was determined according to the daily calibration curve.

The nature of data set [3]: Stability of the analytes in rat plasma (QC samples). As to conditions: n = 6; for Long-term Stability RE: -20 °C for one month; for Short-term Stability RE: room temperature 24 h; for Free–thaw Stability RE: three cycles -20 °C/room temperature. It is filed as in vitro ADME. The procedure: The QC samples were assayed under several different conditions to evaluate the stability of the compounds in rat plasma. For the short-term stability, fresh plasma samples were kept at room temperature for 24 h before the sample preparation. After keeping the samples at room temperature for 24 h, post-preparation stability was tested. Freeze-thaw cycles (-20 °C/room temperature) stability were […] treated at -20°C for freezing-room temperature melting three times (repeated freezing and thawing three times). In each freeze-thaw cycle, the samples were frozen and stored at -20 °C for 24 h, and subsequently thawed at room. To evaluate the long-term stability of QC plasma samples, following storage at -20 °C for one month. The stability data were acceptable when the bias was within ±15% of the actual value ([Yuan et al., 2017]).

Setting [4] is: SD rats, oral compatibility NA-NHE (naringin 1.85 g/kg and neohesperidin 1.81 g/kg), two-compartment parameters, n = 6.
The mark [5] stands for this setting: SD rats, oral monomer (naringin 1.85 g/kg or neohesperidin 1.81 g/kg), two-compartment parameters, n = 6.
[6] abbreviates: male SD rats, oral FA extract 10.8 g/kg of the original medicinal material, two-compartment model parameters, n = 6.
The mark [7] stands for this setting: male, Sprague-Dawley, rat, plasma, po, 10.8 g/kg, male SD rats, oral FA extract 10.8 g/kg of the original medicinal material, two-compartment model parameters, n = 6.
[8] abbreviates: male, Sprague-Dawley, rat, plasma, po, 10.8 g/kg, male SD rats, oral FA extract 10.8 g/kg of the original medicinal material, two-compartment model parameters, n = 6, read-out: AUC(0-t).
Where [9] appears, read: male, Sprague-Dawley, rat, plasma, po, 10.8 g/kg, male SD rats, oral FA extract 10.8 g/kg of the original medicinal material, two-compartment model parameters, n = 6, read-out: CL/F (converted).
[10] abbreviates: male, Sprague-Dawley, rat, plasma, po, 10.8 g/kg, male SD rats, oral FA extract 10.8 g/kg of the original medicinal material, two-compartment model parameters, n = 6, read-out: t1/2β (converted).
Where [11] appears, read: high QC concentration (3880 / 2946 / 2470 / 836 / 422.4 ng/mL).
The mark [12] stands for this setting: low QC concentration (3.88 / 2.946 / 2.47 / 0.836 / 0.4224 ng/mL).
Setting [13] is: middle QC concentration (77.6 / 58.92 / 49.4 / 16.72 / 8.44 ng/mL).

Take `COc1ccc([C@@H]2CC(=O)c3c(O)cc(O[C@@H]4O[C@H](CO)[C@@H](O)[C@H](O)[C@H]4O[C@@H]4O[C@@H](C)[C@H](O)[C@@H](O)[C@H]4O)cc3O2)cc1O` [NHE, neohesperidin]: the “Detection in rat plasma” value in data set [1] is listed as “could not been detected”. In data set [2] (setting [4]), the area under the curve AUC(0-t) (usually exposure summed from dosing to a finite time, without extrapolation to infinity) amounted to 3475.14 ± 714.19 ng·h/mL; the “AUC(0-∞)” value was 3557.64 ± 726.84 ng·h/mL; the CL/F amounted to 60.5 ± 13.3 mL/min/kg; the Ka was found to be 4.40 ± 0.83 h⁻¹. Also, in data set [2] (setting [4]), the V1/F came out at 4.37 ± 1.16 L/kg, the “t1/2(Ka)” value was 0.57 ± 0.11 h, the t1/2α turned out to be 3.22 ± 0.42 h and the t1/2β was found to be 3.43 ± 0.55 h. In addition, in data set [2] (setting [5]), the “AUC(0-t)” value was 2932.05 ± 625.03 ng·h/mL, the “AUC(0-∞)” value worked out at 2988.05 ± 621.39 ng·h/mL, the CL/F was 91.5 ± 12.2 mL/min/kg and the Ka was 1.64 ± 0.35 h⁻¹. Further, in data set [2] (setting [5]), the V1/F is recorded as 4.58 ± 1.18 L/kg, the “t1/2(Ka)” value is reported as 0.96 ± 0.08 h, the t1/2α was determined as 4.39 ± 0.47 h and the t1/2β was found to be 4.61 ± 0.48 h. For the same compound, in data set [2] (setting [6]), the “AUC(0-t)” value was found to be 4345.39 ± 704.69 ng·h/mL, the “AUC(0-∞)” value turned out to be 4421.59 ± 723.98 ng·h/mL, the CL/F amounted to 68.2 ± 18.3 mL/min/kg and the Ka worked out at 3.17 ± 0.93 h⁻¹. Besides, in data set [2] (setting [6]), the V1/F stood at 7.17 ± 1.40 L/kg, the “t1/2(Ka)” value was 0.26 ± 0.07 h, the t1/2α came to 3.47 ± 0.51 h and the t1/2β was 3.86 ± 0.32 h. Moreover, the “Shape of the plasma concentration-time profile” value (“Shape” for short) in data set [2] is “Double-peak phenomenon”.

Take `C[C@@H]1O[C@@H](O[C@H]2[C@H](Oc3cc(O)c4c(c3)O[C@H](c3ccc(O)cc3)CC4=O)O[C@H](CO)[C@@H](O)[C@@H]2O)[C@H](O)[C@H](O)[C@H]1O` [NA, naringin]: the “Detection in rat plasma” value in data set [1] was “could not been detected”. In data set [2] (setting [6]), this compound had a V1/F of 0.82 ± 0.06 L/kg. Further, in data set [2] (setting [7]), the AUC(0-inf) (commonly the area under the concentration-time curve extrapolated to infinity) stood at 20900 ± 3010 ng·h/mL. For the same compound, the AUC(0-t) in data set [2] (setting [8]) came out at 20700 ± 3010 ng·h/mL. Besides, the CL/F in data set [2] (setting [9]) is 13.8 mL/min/kg. In addition, the half-life in data set [2] (setting [10]) was 2.65 ± 0.18 h. For the same compound, in data set [2], the “Shape” value is on record as “Double-peak phenomenon”.

For the compound `COc1ccc([C@@H]2CC(=O)c3c(O)cc(O)cc3O2)cc1O` [Hesperetin, hesperetin], in data set [2] (Sprague-Dawley, rat, plasma, male SD rats, oral FA extract 10.8 g/kg of the original medicinal material, statistical moment parameters, n = 6, read-out: MRT(0-t)), the MRT last amounted to 11.4 ± 0.37 h. Moreover, the MRT inf in data set [2] (Sprague-Dawley, rat, plasma, male SD rats, oral FA extract 10.8 g/kg of the original medicinal material, statistical moment parameters, n = 6, read-out: MRT(0-∞)) turned out to be 11.7 ± 0.42 h. Also, the Vd/F in data set [2] (Sprague-Dawley, rat, plasma, male SD rats, oral FA extract 10.8 g/kg of the original medicinal material, statistical moment parameters, n = 6, read-out: Vz/F) came out at 12.2 ± 1.67 L/kg. For the same compound, the Cmax in data set [2] (Sprague-Dawley, rat, male SD rats, oral FA extract 10.8 g/kg of the original medicinal material, plasma after β-glucuronidase/sulfatase hydrolysis, statistical moment parameters, n = 6) stood at 425 ± 11.1 ng/mL. Further, in data set [2] (setting [6]), the Ka was 3.17 ± 0.93 h⁻¹. Moreover, in data set [2] (setting [6]), the V1/F is 7.17 ± 1.40 L/kg. Moreover, the t1/2α in data set [2] (setting [6]) was found to be 3.47 ± 0.51 h. Further, the AUC(0-inf) in data set [2] (male, Sprague-Dawley, rat, plasma, po, 10.8 g/kg, male SD rats, oral FA extract 10.8 g/kg of the original medicinal material, statistical moment parameters, n = 6) worked out at 4340 ± 326 ng·h/mL; in data set [2] (setting [7]), 4420 ± 724 ng·h/mL. The AUC(0-t) was found to be 4300 ± 315 ng·h/mL in data set [2] (male, Sprague-Dawley, rat, plasma, po, 10.8 g/kg, male SD rats, oral FA extract 10.8 g/kg of the original medicinal material, statistical moment parameters, n = 6, read-out: AUC(0-t)) and 4350 ± 705 ng·h/mL in data set [2] (setting [8]). Moreover, the CL/F was 41.7 mL/min/kg in data set [2] (male, Sprague-Dawley, rat, plasma, po, 10.8 g/kg, male SD rats, oral FA extract 10.8 g/kg of the original medicinal material, statistical moment parameters, n = 6, read-out: CLz/F (converted)) and 68.2 mL/min/kg in data set [2] (setting [9]). In addition, the Tmax – broadly, the time at which the peak concentration occurs – in data set [2] (male, Sprague-Dawley, rat, plasma, po, 10.8 g/kg, male SD rats, oral FA extract 10.8 g/kg of the original medicinal material, statistical moment parameters, n = 6, read-out: Tmax) was determined as 9.67 ± 0.82 h. Also, the half-life in data set [2] (male, Sprague-Dawley, rat, plasma, po, 10.8 g/kg, male SD rats, oral FA extract 10.8 g/kg of the original medicinal material, statistical moment parameters, n = 6, read-out: t1/2z (converted)) is 3.4 ± 0.46 h; in data set [2] (setting [10]) it was 3.86 ± 0.32 h. The “Shape” value in data set [2] was “double peaks”. Also, the “Long-term Stability RE” value in data set [3] (setting [11]) is on record as -7.81%; in data set [3] (setting [12]), 5.03%; in data set [3] (setting [13]), -8.58%. For the same compound, the “Short-term Stability RE” value is -13.50% in data set [3] (setting [11]), 4.10% in data set [3] (setting [12]) and -9.20% in data set [3] (setting [13]). The entries for the “Free–thaw Stability RE” value in data set [3] (setting [11]), in data set [3] (setting [12]) and in data set [3] (setting [13]) were -12.68%, 7.78% and -10.70%, respectively.

The record behind these values is article PMC7319089, “Multi-Component Comparative Pharmacokinetics in Rats After Oral Administration of Fructus aurantii Extract, Naringin, Neohesperidin, and Naringin-Neohesperidin” (Frontiers in Pharmacology, 2020).
